Assay [1] has as its target T1, glutathione-S-transferase (GST) tagged LXRbeta LBD (ligand binding domain) (Homo sapiens, UniProt P55055).
T1 construct: purchased Invitrogen pv4658
T1 sequence (P55055 222-460 limits assumed): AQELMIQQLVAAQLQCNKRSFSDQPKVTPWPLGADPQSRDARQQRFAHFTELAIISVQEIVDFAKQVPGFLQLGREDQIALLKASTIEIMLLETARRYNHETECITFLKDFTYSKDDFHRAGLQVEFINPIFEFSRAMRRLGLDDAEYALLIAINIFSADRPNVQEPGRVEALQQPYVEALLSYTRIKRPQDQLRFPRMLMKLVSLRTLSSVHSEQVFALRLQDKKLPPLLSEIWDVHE
Description: LanthaScreen TR-FRET Liver X Receptor Coactivator Assay, LXR beta. The following applies: for EC50: LXR beta IP, potency (Inflection Point), compound-induced co-activator recruitment, TR-FRET; for Emax: read-out: LXR beta actiivty at max dose, efficacy (% Emax) in relation to reference dual agonist T0901317. In kind it is biochemical. Here is the method:
(§1) While running the LanthaScreen™ TR-FRET Liver X Receptor Coactivator Assay, LXR alpha-LBD or LXR beta-LBD was added to ligand test compounds followed by addition of a mixture of a fluorescein-labelled coactivator peptide and terbium-conjugated anti-GST antibody. After an incubation period at room temperature, TR-FRET (time-resolved fluorescence resonance energy transfer) was measured using a filter-based instrument capable of TR-FRET, e.g. PerkinElmer Envision.
On the technique in general: TR-FRET usually uses a lanthanide donor and a delayed reading to cut background.

Assay [2] deals with T2, glutathione-S-transferase (GST) tagged LXRalpha LBD (ligand binding domain) (Homo sapiens, UniProt Q13133).
T2 construct: purchased Invitrogen pv4655
T2 sequence (Q13133 209-447 limits assumed): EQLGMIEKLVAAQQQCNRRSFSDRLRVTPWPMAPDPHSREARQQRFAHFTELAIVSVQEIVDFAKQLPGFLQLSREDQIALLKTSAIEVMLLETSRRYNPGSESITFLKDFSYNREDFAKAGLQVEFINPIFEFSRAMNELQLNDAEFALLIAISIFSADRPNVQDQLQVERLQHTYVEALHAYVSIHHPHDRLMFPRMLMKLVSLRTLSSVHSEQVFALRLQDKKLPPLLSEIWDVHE
Description: biochemical. Here is the method: as §1

Where [3] appears, read: LXR alpha IP, potency (Inflection Point), compound-induced co-activator recruitment, TR-FRET.
Setting [4] is: read-out: LXR alpha actiivty at max dose, efficacy (% Emax) in relation to reference dual agonist T0901317.
[5] abbreviates: potency (Inflection Point), compound-induced co-activator recruitment, TR-FRET.
The mark [6] stands for this setting: efficacy (% Emax) in relation to reference dual agonist T0901317, read-out: LXR alpha actiivty at max dose.

Like-named read-outs stand apart in the source and are kept apart here.

With `CN(C(=O)c1ccc(OCCCCC2CCN(C(=O)[C@](O)(c3ccccc3)C(F)(F)F)CC2)cc1Cl)C1COC1` (single isomer, unassigned) [Example 8-13, (R or S)-2-chloro-N-methyl-N-(oxetan-3-yl)-4-(4-(1-(3,3,3-trifluoro-2-hydroxy-2-phenylpropanoyl)piperidin-4-yl)butoxy) benzamide], the EC50 was 22 nM in assay [1] and 412 nM in assay [2] (setting [3]). Besides, the Emax was 73% in assay [1] and 29% in assay [2] (setting [4]).
On the same counts, the results for `O=C(c1ccc(OCCCCC2CCN(C(=O)C(O)(c3ccccc3)C(F)(F)F)CC2)cc1Cl)N1C[C@H]2CC[C@@H]1C2` (single isomer, unassigned) [Example 8-14, (R or S)-1-(4-(4-(4-((1R,4S)-2-azabicyclo[2.2.1]heptane-2-carbonyl)-3-chlorophenoxy)butyl)piperidin-1-yl)-3,3,3-trifluoro-2-hydroxy-2-phenylpropan-1-one] are 38 nM, 227 nM, 48% and 19%.
Taken in the same sequence, the figures for `O=C(c1ccc(OCCCCC2CCN(C(=O)C(O)(c3ccccc3)C(F)(F)F)CC2)cc1Cl)N1C[C@@H]2CC[C@H]1C2` (single isomer, unassigned) [Example 8-15, (R or S)-1-(4-(4-(4-((1S,4R)-2-azabicyclo[2.2.1]heptane-2-carbonyl)-3-chlorophenoxy)butyl)piperidin-1-yl)-3,3,3-trifluoro-2-hydroxy-2-phenylpropan-1-one] were 64 nM, 410 nM, 36% and 9%.
Turning to `CN(C(=O)c1ccc(OCCCCC2CCN(C(=O)[C@](O)(c3ccccc3)C(F)(F)F)CC2)cc1Cl)[C@H]1CCOC1` (single isomer, unassigned) [Example 8-16, 2-chloro-N-methyl-N-((S or R)-tetrahydro-furan-3-yl)-4-(4-(1-((R or S)-3,3,3-trifluoro-2-hydroxy-2-phenylpropanoyl)piperidin-4-yl)butoxy) benzamide], the values for the EC50 in assay [1] and in assay [2] (setting [3]) were 10 nM and 116 nM, respectively. The figures for the Emax in assay [1] and in assay [2] (setting [4]) were 71% and 32%, respectively.
Take `CC(C)N(C)C(=O)c1ccc(OCCCCC2CCN(C(=O)[C@](O)(c3ccccc3)C(F)(F)F)CC2)cc1Cl` (single isomer, unassigned) [Example 8-17, (R or S)-2-chloro-N-isopropyl-N-methyl-4-(4-(1-(3,3,3-trifluoro-2-hydroxy-2-phenylpropanoyl)piperidin-4-yl)butoxy) benzamide]: in assay [1], the EC50 was found to be 17 nM and the Emax came to 50%. In addition, the “LXR alpha IP” value in assay [2] (setting [5]) is “No IP”. In addition, the Emax in assay [2] (setting [4]) is 10%.
In the case of `CNC(=O)c1ccc(OCCCCC2CCN(C(=O)[C@](O)(c3cccc(OC)c3)C(F)(F)F)CC2)cc1Cl` (single isomer, unassigned) [Example 8-18, (R or S)-2-chloro-N-methyl-4-(4-(1-(3,3,3-trifluoro-2-hydroxy-2-(3-methoxyphenyl)propanoyl)piperidin-4-yl)butoxy) benzamide], the EC50 was found to be 14 nM in assay [1] and 742 nM in assay [2] (setting [3]). Also, the Emax was 91% in assay [1] and 31% in assay [2] (setting [4]).
In the case of `CN(C)CCCNC(=O)c1ccc(OCCCCC2CCN(C(=O)[C@](O)(c3ccccc3)C(F)(F)F)CC2)cc1Cl` (single isomer, unassigned) [Example 8-19, (R or S)-2-chloro-N-(3-(dimethylamino)propyl)-4-(4-(1-(3,3,3-trifluoro-2-hydroxy-2-phenylpropanoyl)piperidin-4-yl)butoxy) benzamide], the EC50 was found to be 33 nM in assay [1] and 1240 nM in assay [2] (setting [3]). Further, the Emax in assay [1] turned out to be 53%; in assay [2] (setting [4]), 36%.
For `COc1cccc([C@@](O)(C(=O)N2CCC([C@H]3C[C@H]3CCOc3ccc(C(=O)N(C)C)c(Cl)c3)CC2)C(F)(F)F)c1` (single isomer, unassigned) [Example 10-1, 2-chloro-N,N-dimethyl-4-(2-((1S,2R or 1R, 2S)-2-(1-((R or S)-3,3,3-trifluoro-2-hydroxy-2-(3-methoxyphenyl)propanoyl)piperidin-4-yl)cyclopropyl)ethoxy)benzamide], the EC50 was 5 nM in assay [1] and 117 nM in assay [2] (LXR alpha IP). Besides, the Emax in assay [1] worked out at 66%; in assay [2] (read-out: LXR alpha actiivty at max dose), 14%.
Turning to `CN(C)C(=O)c1ccc(OCC[C@@H]2C[C@@H]2C2CCN(C(=O)c3c(F)cccc3F)CC2)cc1Cl` (single isomer, unassigned) [Example 10-2, 2-chloro-4-(2-((1S,2R or 1R, 2S)-2-(1-(2,6-difluorobenzoyl)piperidin-4-yl)cyclopropyl)ethoxy)-N,N-dimethylbenzamide], the EC50 in assay [1] amounted to 106 nM; in assay [2] (setting [3]), 1510 nM. Moreover, the Emax was 69% in assay [1] and 14% in assay [2] (setting [4]).
On the same counts, the results for `CNC(=O)c1ccc(OCC[C@@H]2C[C@@H]2C2CCN(C(=O)[C@](O)(c3cc(F)cc(F)c3)C(F)(F)F)CC2)cc1Cl` (single isomer, unassigned) [Example 10-3, 2-chloro-4-(2-((1S,2R or 1R, 2S)-2-(1-((R or S)-2-(3,5-difluorophenyl)-3,3,3-trifluoro-2-hydroxypropanoyl)piperidin-4-yl)cyclopropyl)ethoxy)-N-methylbenzamide] are 2 nM, 28 nM, 116% and 63%.
Taken in the same sequence, the figures for `CNC(=O)c1ccc(OCC[C@@H]2C[C@@H]2C2CCN(C(=O)[C@](O)(c3cccc(OC)c3)C(F)(F)F)CC2)cc1Cl` (single isomer, unassigned) [Example 10-5, 2-chloro-N-methyl-4-(2-((1S,2R or 1R, 2S)-2-(1-((R or S)-3,3,3-trifluoro-2-hydroxy-2-(3-methoxyphenyl)propanoyl)piperidin-4-yl)cyclopropyl)ethoxy) benzamide] were 7 nM, 209 nM, 75% and 13%.
On the same counts, the results for `CN(C)C(=O)c1ccc(OCC[C@@H]2C[C@@H]2C2CCN(C(=O)[C@@](O)(c3ccccc3)C(F)(F)F)CC2)nc1Cl` (single isomer, unassigned) [Example 10-6, 2-chloro-N,N-dimethyl-6-(2-((1S,2R or 1R,2S)-2-(1-((S or R)-3,3,3-trifluoro-2-hydroxy-2-phenylpropanoyl)piperidin-4-yl)cyclopropyl)ethoxy) nicotinamide] are 12 nM, 206 nM, 71% and 36%.
`CN(C)C(=O)c1ccc(OCC[C@@H]2C[C@@H]2C2CCN(C(=O)OCc3ccccc3)CC2)nc1Cl` (single isomer, unassigned) [Example 10-7, benzyl 4-((1R,2S or 1S,2R)-2-(2-(6-chloro-5-(dimethylcarbamoyl)pyridin-2-yloxy)ethyl)cyclopropyl) piperidine-1-carboxylate]: the EC50 in assay [1] is 49 nM; in assay [2] (setting [3]) it was 861 nM. Besides, the Emax stood at 104% in assay [1] and 41% in assay [2] (setting [4]).
`CN(C)C(=O)c1ccc(OCC[C@H]2C[C@H]2C2CCN(C(=O)[C@](O)(c3ccccc3)C(F)(F)F)CC2)cc1C#N` (single isomer, unassigned) [Example 11-1, 2-cyano-N,N-dimethyl-4-(2-((1R,2S or 1S,2R)-2-(1-((R or S)-3,3,3-trifluoro-2-hydroxy-2-phenylpropanoyl)piperidin-4-yl)cyclopropyl)ethoxy)benzamide]: the EC50 in assay [1] stood at 106 nM; in assay [2] (potency (Inflection Point), compound-induced co-activator recruitment, TR-FRET, read-out: LXR alpha IP) it was 1420 nM. Further, the Emax in assay [1] turned out to be 78%; in assay [2] (setting [6]), 23%.
Consider `CN(C)C(=O)c1ccc(OCCC2CC23CCN(C(=O)C2(c4ccccc4)CCCC2)CC3)cc1Cl` (single isomer, unassigned) [Example 12-1, (R or S)-2-chloro-N,N-dimethyl-4-(2-(6-(1-phenylcyclopentanecarbonyl)-6-azaspiro[2.5]octan-1-yl)ethoxy)benzamide], for which, in assay [1], the EC50 turned out to be 24 nM and the Emax came to 58%. In assay [2] (setting [6]), the Emax came to 1%. The “LXR alpha IP” value in assay [2] (setting [5]) is reported as “No IP”.

The values are drawn from patent US11655216B2 (priority 2016, dated 2023).
